Converted amounts (≈) assume the structure as drawn.
Tests used:
[1] = test system: Mycobacterium tuberculosis; test: Antitubercular activity against isoniazid,streptomycin,rifampicin,ethambutol,para-aminosalicylate,prothionamide,capreomycin-resistant Mycobacterium tuberculosis clinical isolate 14862 assessed as bacterial growth inhibition incubated for 7 days by MABA assay; assay type: functional; settings: clinical isolate 14862, 168 h, time 7 day
[2] = test system: Mycobacterium tuberculosis; test: Antitubercular activity against isoniazid,streptomycin,rifampicin,ethambutol, rifabutin, para-aminosalicylat, ofloxacin-resistant Mycobacterium tuberculosis clinical isolate 13946 assessed as inhibition of bacterial growth incubated for 7 days by MABA assay; assay type: functional; settings: clinical isolate 13946, 168 h, time 7 day

Row | SMILES | MIC [1] [µg/mL] | MIC [2] [µg/mL]
1 | CC(=O)OC1CCC(CN2CCN(c3cc(=O)c4cc(C(F)(F)F)cc([N+](=O)[O-])c4s3)CC2)CC1 (centres undefined) | 0.062 (≈ 0.121 µM) | 0.062 (≈ 0.121 µM)
2 | O=c1cc(N2CCN(CC3CCC(OS(=O)(=O)c4ccccc4)CC3)CC2)sc2c([N+](=O)[O-])cc(C(F)(F)F)cc12 (centres undefined) | 0.002 (≈ 0.00327 µM) | 0.001 (≈ 0.00163 µM)
3 | NNC(=O)c1ccncc1 [ISONIAZID] | > 10 | > 10
4 | CO[C@H]1/C=C/O[C@@]2(C)Oc3c(C)c(O)c4c(O)c(c(/C=N/N5CCN(C)CC5)c(O)c4c3C2=O)NC(=O)/C(C)=C\C=C\[C@H](C)[C@H](O)[C@@H](C)[C@@H](O)[C@@H](C)[C@H](OC(C)=O)[C@@H]1C [RIFAMPIN] | > 10 | > 10
5 | CS(=O)(=O)OC1CCC(CN2CCN(c3cc(=O)c4cc(C(F)(F)F)cc([N+](=O)[O-])c4s3)CC2)CC1 (centres undefined) | 0.001 (≈ 0.00182 µM) | < 0.001
6 | O=c1cc(N2CCN(CC3CCC(OS(=O)(=O)c4cccnc4)CC3)CC2)sc2c([N+](=O)[O-])cc(C(F)(F)F)cc12 (centres undefined) | < 0.001 | < 0.001
7 | O=C(OC1CCC(CN2CCN(c3cc(=O)c4cc(C(F)(F)F)cc([N+](=O)[O-])c4s3)CC2)CC1)c1ccccc1 (centres undefined) | 0.162 (≈ 0.281 µM) | 0.216 (≈ 0.375 µM)

From ChEMBL document CHEMBL4825698, “Identification of novel benzothiopyranones with ester and amide motifs derived from active metabolite as promising leads against Mycobacterium tuberculosis” (Eur J Med Chem, 2021)
